Experimental data reported in patent US20020028938A1, “Prostaglandin endoperoxide H synthase biosynthesis inhibitors” (priority 1997, published 2002).

What was measured:
[1] = biological target: T1, Human Whole Platelet Cyclooxygenase-1 (Homo sapiens, UniProt P23219); assay: Human Whole Platelet Cyclooxygenase-1 assay (HWPX); type: cell-based; conditions: for IC50: read-out: HWPX IC50 (parenthetical value)
T1 construct: from tissue; host or cells: human blood: isolated platelets (A4) or heparinised whole blood (A9)
T1 sequence (P23219 24-599): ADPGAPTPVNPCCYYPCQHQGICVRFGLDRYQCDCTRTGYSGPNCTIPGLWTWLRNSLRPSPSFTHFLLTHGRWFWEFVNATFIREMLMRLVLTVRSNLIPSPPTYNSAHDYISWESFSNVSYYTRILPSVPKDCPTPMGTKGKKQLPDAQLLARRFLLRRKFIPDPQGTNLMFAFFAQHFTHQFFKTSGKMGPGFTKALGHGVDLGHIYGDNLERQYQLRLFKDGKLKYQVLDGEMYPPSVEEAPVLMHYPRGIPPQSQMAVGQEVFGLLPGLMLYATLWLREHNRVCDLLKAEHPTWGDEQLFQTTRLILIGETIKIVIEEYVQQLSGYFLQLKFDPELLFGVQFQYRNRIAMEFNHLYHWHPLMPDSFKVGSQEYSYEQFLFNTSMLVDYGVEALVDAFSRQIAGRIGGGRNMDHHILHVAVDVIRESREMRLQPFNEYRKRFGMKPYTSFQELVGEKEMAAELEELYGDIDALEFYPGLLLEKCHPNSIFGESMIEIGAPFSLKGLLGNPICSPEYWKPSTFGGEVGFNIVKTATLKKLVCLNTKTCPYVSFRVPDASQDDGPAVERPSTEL
Protocol: Blood from normal healthy volunteers is collected into tubes containing ACD (acid citrate dextrose) as the anticoagulant. This blood is centrifuged at 175×g to prepare platelet rich plasma. The platelet rich plasma is then centrifuged at 100×g to pellet the white blood cells, leaving the platelets in the supernatant. The supernatant is layered on a cushion of 0.7 mL of 10% bovine serum albumin in Tyrodes solution (Gibco; Grand Island, N.Y.) and then centrifuged at 1000×g. The resulting supernatant from this centrifuigation is then removed and 11 mL of Tyrodes solution is added to the remaining pellet of platelets. The platelets are then aliquoted at 120 μl into a 96 well plate. Experimental compounds are added and allowed to pre-incubate for 10 minutes. At the end of this pre-incubation period, the calcium ionophore A23187 is added to a final concentration of 8.8 μM and the incubation is continued for ten minutes. The reaction is stopped by adding cold 6 mM EDTA, the incubation mixture is centrifuged at 220×g, and the supernatants are then analyzed for thromboxane using a commercial kit from Cayman Chemical (Ann Arbor, Mich.

[2] = biological target: T2, human amnionic whole cell cyclooxygenase-2 (WISH cells) (Homo sapiens, UniProt P35354); assay: IL-1β induced PGE2 production in WISH cells; type: cell-based; conditions: for IC50: read-out: Wish IC50 (parenthetical value)
T2 construct: endogenous in cells; host or cells: human amnionic WISH cells, induced with IL-1beta
T2 sequence (P35354 18-604): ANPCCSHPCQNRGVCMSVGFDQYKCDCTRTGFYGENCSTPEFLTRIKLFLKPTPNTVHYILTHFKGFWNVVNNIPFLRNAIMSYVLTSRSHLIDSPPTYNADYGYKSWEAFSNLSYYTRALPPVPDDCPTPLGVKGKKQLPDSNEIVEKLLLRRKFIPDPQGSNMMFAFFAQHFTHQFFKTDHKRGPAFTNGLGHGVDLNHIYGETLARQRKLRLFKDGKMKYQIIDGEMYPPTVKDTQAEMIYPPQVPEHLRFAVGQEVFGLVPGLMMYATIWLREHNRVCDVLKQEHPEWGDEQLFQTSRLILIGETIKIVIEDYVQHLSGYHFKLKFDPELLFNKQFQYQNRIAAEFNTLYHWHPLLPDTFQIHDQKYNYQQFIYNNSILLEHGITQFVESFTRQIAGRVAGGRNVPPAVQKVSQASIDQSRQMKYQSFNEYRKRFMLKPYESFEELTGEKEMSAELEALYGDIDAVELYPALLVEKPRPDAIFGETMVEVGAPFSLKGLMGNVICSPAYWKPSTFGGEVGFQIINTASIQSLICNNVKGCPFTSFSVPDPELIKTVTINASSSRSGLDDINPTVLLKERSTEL
Protocol: EIA reagents for prostaglandin determination were purchased from Perseptive Diagnostics, (Cambridge, Mass.). Prostaglandin E2 (PGE2) levels in lavage fluids were determined after the samples were dried under nitrogen and reconstituted with assay buffer. PGE2 levels in enzyme assays or cell culture media were measured against standards prepared in the same milieu. The immunoassays were conducted as recommended by the manufacturer. The EIA was conducted in 96 well microtiter plates (Nunc Roskilde, Denmark) and optical density was measured using a microplate reader (Vmax, Molecular Devices Corp., Menlo Park, Calif.).
Human amnionic WISH cells were grown to 80% confluence in 48 well plates. Following removal of the growth medium and two washings with Geys Balanced Salt Solutn, 5 ng IL-1β /ml (UBI, Lake Placid, N.Y.) was added to the cells with or without test compound in DMSO (0.01% v/v) in Neuman-Tytell Serumless Medium (GIBCO, Grand Island, N.Y.).

[3] = biological target: T3, recombinant human Cox-2 (r-hu Cox-2) (Homo sapiens, UniProt P35354); assay: Recombinant human PGHS-2 enzyme assay (RHUCX2); type: biochemical
T3 construct: made in house; host or cells: baculovirus/Sf9 insect cells (microsomes)
T3 sequence (P35354 18-604): T2 sequence (P35354 18-604)
In short: (§1)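 Recombinant enzyme reaction ran 2.5 minutes at room temperature, then was quenched with HCl and neutralized with NaOH. PGE2 formed with and without drug was quantified by EIA against standards in the same milieu. Percent inhibition versus control mean; IC50 by linear regression.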

[4] = biological target: T4, recombinant human Cox-1 (r-hu Cox1) (Homo sapiens, UniProt P23219); assay: Recombinant human PGHS-1 enzyme assay (RHUCX1); type: biochemical; conditions: 100 μM; read-out: RHUCX1 % Inh. at Dose
T4 construct: made in house; host or cells: baculovirus/Sf9 insect cells (microsomes)
T4 sequence (P23219 24-599): as the sequence (P23219 24-599) above
In short: as §1

[5] = read-out: HWPX % Inhib. at Dose
[6] = read-out: RHUCX2 % Inh. at Dose

CCC(CC)COc1c(-c2ccc(S(C)(=O)=O)cc2)cnn(-c2ccc(F)cc2)c1=O [Example 430, 2-(4-Fluorophenyl)-4-(2-ethyl-1-butoxy)-5-[4-(methylsulfonyl)phenyl]-3(2H)-pyridazinone]
inhibition at 10 µM [1, 5]: 34% | inhibition at 100 µM [1, 5]: 89% | IC50 [2]: 0.054 µM | melting point: 107 to 108 °C

Cc1ccc(-c2c(-c3ccc(S(C)(=O)=O)cc3)cnn(Cc3ccccc3)c2=O)cc1C [Example 325, 2-Benzyl-4-(3,4-dimethylphenl)-5-[4-(methylsulfonyl)phenyl]-3(2H)-pyridazinone]
IC50 ([3]; read-out: RHUCX2 IC50 (parenthetical value)): 0.199 µM | IC50 [1]: 2.3 µM | IC50 [2]: 0.04 µM

CS(=O)(=O)c1ccc(-c2cnn(Cc3ccccc3)c(=O)c2Oc2ccc(F)cc2)cc1 [Example 75]
inhibition at 3 µM ([1]; 3 μM, read-out: HWPX % Inhib. at Dose): 0% | inhibition at 10 µM [1, 5]: 84% | melting point: 188 to 190 °C

CC(c1ccc(F)c(F)c1)n1ncc(-c2ccc(S(N)(=O)=O)cc2)c(-c2ccc(F)cc2)c1=O (stereo not drawn) [Example 148, 2-(α-Methyl-3,4-difluorobenzyl)-4-(4-fluorophenyl)-5-[4-(aminosulfonlI)phenyl]-3(2H)-pyridazinone]
inhibition at 0.3 µM ([1]; 0.3 μM, read-out: HWPX % Inhib. at Dose): 51% | IC50 [2]: 0.042 µM | melting point: 214 to 215 °C

CS(=O)(=O)c1ccc(-c2cnn(-c3cccc(Cl)c3)c(=O)c2Oc2ccccc2)cc1 [Example 343, 2-(3-Chlorophenyl)-4-(phenoxy)-5-[4-(methylsulfonyl)phenyl]-3(2H)-pyridazinone]
IC50 [1]: 0.191 µM | IC50 [2]: 0.016 µM | melting point: 205 to 207 °C

Cc1cc(-n2ncc(-c3ccc(S(C)(=O)=O)cc3)c(-c3ccc(F)cc3)c2=O)ccc1F [Example 189, 2-(4-Fluoro-3-methylphenyl)-4-(4-fluorophenyl)-5-[4-(methylsulfonyl)phenyl]-3(2H)-pyridazinone]
inhibition at 100 µM [1, 5]: 31% | IC50 [2]: 0.041 µM | melting point: 168 to 170 °C

Cc1cc(-c2c(-c3ccc(S(C)(=O)=O)cc3)cnn(-c3cccc(Cl)c3)c2=O)ccc1F [Example 244, 2-(3-Chlorophenyl)-4-(4-fluoro-3-methylphenyl)-5-[4-(methylsulfonyl)phenyl]-3(2H)-pyridazinone]
IC50 [1]: 3.67 µM | IC50 [2]: 0.019 µM | melting point: 228 to 230 °C

CS(=O)(=O)c1ccc(-c2cnn(CC(F)(F)F)c(=O)c2SC2CCCCC2)cc1 [Example 287, 2-(2,2,2-Trifluoroethyl)-4-(cyclohexylthio)-5-[4-(methylsulfonyl)phenyl]-3(2H)-pyridazinone]
inhibition at 100 µM [4]: 0% | inhibition at 0.1 µM [3, 6]: 25% | inhibition at 1 µM [3, 6]: 79% | inhibition at 10 µM ([3]; 10 μM, read-out: RHUCX2 % Inh. at Dose): 93% | IC50 [2]: 0.16 µM | melting point: 165 to 167 °C

CS(=O)(=O)c1ccc(-c2cnn(Cc3ccccc3)c(=O)c2-c2ccc(Cl)s2)cc1 [Example 320, 2-Benzyl-4-(5-chloro-2-thienyl)-5-[4-(methylsulfonyl)phenyl]-3(2H)-pyrdazinone]
HWPX % Inhib. at Dose (μM) ([1]; 3 μM): 29 @ 3% | Wish % Inhib. at Dose (μM) ([2]; 0.01 μM): 15 @ .01% | Wish % Inhib. at Dose (μM) ([2]; 0.1 μM): 78 @ .1%

CC(C)CCc1c(-c2ccc(S(C)(=O)=O)c(F)c2)cnn(-c2ccc(F)c(Cl)c2)c1=O [Example 252, 2-(3-Chloro-4-fluorophenyl)-4-(3-methylbutyl)-5-[3-fluoro-4-(methylsulfonyl)phenyl]-3(2H)-pyridazinone]
inhibition at 100 µM [4]: 0% | inhibition at 0.01 µM ([3]; 0.01 μM, read-out: RHUCX2 % Inh. at Dose): 26% | inhibition at 0.1 µM [3, 6]: 87% | IC50 [2]: 0.044 µM | melting point: 102 to 104 °C

CC(C)COc1c(-c2ccc(S(C)(=O)=O)cc2)cnn(CC(F)(F)F)c1=O [Example 278, 2-(2,2,2-Trifluoroethyl)-4-(2-methylpropoxy)-5-[4-(methylsulfonyl)phenyl]-3(2H)-pyridazinone]
inhibition at 100 µM [4]: 36% | inhibition at 0.1 µM [3, 6]: 91% | inhibition at 1 µM [3, 6]: 96% | IC50 [2]: 0.07 µM | melting point: 108 to 110 °C
